How the values were obtained:
[1] = tested on: pigweed; test: Test B pre/postemergence pigweed; format: in vivo, Amaranthus retroflexus
Outline: (§1)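 Test chemicals in a non-phytotoxic solvent mixture with surfactant were sprayed preemergence onto planted seeds and postemergence onto plants 2 to 18 cm tall (1- to 4-leaf stage). After twelve to sixteen days in a greenhouse, injury was visually rated against untreated controls from 0 (no effect) to 10 (complete control).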

[2] = tested on: corn; test: Test B pre/postemergence corn; format: in vivo, Zea mays
Outline: as §1

[3] = tested on: soybean; test: Test B pre/postemergence soybean; format: in vivo, Glycine max
Outline: as §1

[4] = tested on: crabgrass; test: Test B pre/postemergence crabgrass; format: in vivo, Digitaria sanguinalis
Outline: as §1

[5] = tested on: cocklebur; test: Test B pre/postemergence cocklebur; format: in vivo, Xanthium strumarium
Outline: as §1

[6] = tested on: giant foxtail; test: Test B pre/postemergence giant foxtail; format: in vivo, Setaria faberii
Outline: as §1

[7] = tested on: blackgrass; test: Test B pre/postemergence blackgrass; format: in vivo, Alopecurus myosuroides
Outline: as §1

[8] = tested on: rice; test: Test B flood test rice; format: in vivo, Oryza sativa
Outline: (§2)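 Each value is a visual injury score relative to controls, with 10 meaning complete control and 0 no effect. Evaluation took place twelve to sixteen days after the 2-leaf-stage plants were treated and kept in the greenhouse.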

[9] = tested on: sugar beet; test: Test B pre/postemergence sugar beet; format: in vivo, Beta vulgaris
Outline: as §1

[10] = tested on: rape; test: Test B pre/postemergence rape; format: in vivo, Brassica napus
Outline: as §1

[11] = tested on: wheat; test: Test B pre/postemergence wheat; format: in vivo, Triticum aestivum
Outline: as §1

[12] = tested on: duck salad; test: Test B flood test duck salad; format: in vivo, Heteranthera limosa
Outline: as §2

[13] = tested on: bamyardgrass; test: Test B flood test barnyardgrass; format: in vivo, Echinochloa crus-galli
Outline: as §2

[14] = tested on: smallflower flatsedge; test: Test B flood test smallflower flatsedge; format: in vivo, Cyperus difformis
Outline: as §2

[15] = tested on: surinam grass; test: Test B pre/postemergence surinam grass; format: in vivo, Brachiaria decumbens
Outline: as §1

[16] = tested on: purple nutsedge; test: Test B pre/postemergence purple nutsedge; format: in vivo, Cyperus rotundus
Outline: as §1

[17] = Postemergence, Rate 125 g/ha, scale of 0 to 10 where 0 is no effect and 10 is complete control
[18] = Postemergence, Rate 250 g/ha, scale of 0 to 10, 0 is no effect, 10 is complete control
[19] = Postemergence, Rate 500 g/ha, scale of 0 to 10 where 0 is no effect and 10 is complete control
[20] = Preemergence, Rate 62 g/ha, scale 0 to 10 (0 no effect, 10 complete control)
[21] = Preemergence, Rate 125 g/ha, scale of 0 to 10 where 0 is no effect and 10 is complete control
[22] = Preemergence, Rate 500 g/ha, scale of 0 to 10 where 0 is no effect and 10 is complete control
[23] = Postemergence, Rate 62 g/ha, scale of 0 to 10, 0 is no effect, 10 is complete control
[24] = Rate 62 g/ha, flood test species, Pre-emergence, visual evaluation after twelve to sixteen days
[25] = Rate 125 g/ha, under heading Pre-emergence, flood test species, visual evaluation after twelve to sixteen days
[26] = Rate 250 g/ha, Pre-emergence (flood test species), scale 0 to 10, 0 is no effect, 10 is complete control
[27] = Rate 500 g/ha, Pre-emergence section of Table B, 0 to 10 scale (0 no effect, 10 complete control)

CC(C)N(C(=O)n1oc(=O)n(CC(=O)C(F)(F)F)c1=O)c1ccc(F)cc1F [Compound 598]
0: Plant response rating, Redroot pigweed [1, 17] | Redroot pigweed plant response rating [1, 18] | Plant response rating, Redroot pigweed [1, 19] | Redroot pigweed plant response rating [1, 20] | Redroot pigweed plant response rating [1, 21] | Plant response rating, Redroot pigweed [1, 22] | Corn plant response rating [2, 23] | Plant response rating, Corn [2, 17] | Corn plant response rating [2, 18] | Plant response rating, Corn [2, 19] | Corn plant response rating [2, 20] | Corn plant response rating [2, 21] | Corn plant response rating (0 to 10 scale) ([2]; Preemergence, Rate 250 g/ha) | Plant response rating, Corn [2, 22] | Plant response rating, Soybean [3, 17] | Soybean plant response rating [3, 18] | Plant response rating, Soybean [3, 19] | Soybean plant response rating [3, 20] | Soybean plant response rating [3, 21] | Plant response rating, Soybean [3, 22] | Crabgrass plant response rating [4, 23] | Plant response rating, Crabgrass [4, 17] | Crabgrass plant response rating [4, 18] | Plant response rating, Crabgrass [4, 19] | Crabgrass plant response rating [4, 20] | Crabgrass plant response rating [4, 21] | Plant response rating, Crabgrass [4, 22] | Cocklebur plant response rating [5, 23] | Plant response rating, Cocklebur [5, 17] | Cocklebur plant response rating [5, 18] | Plant response rating, Cocklebur [5, 19] | Cocklebur plant response rating [5, 20] | Cocklebur plant response rating [5, 21] | Cocklebur plant response rating (0 to 10 scale) ([5]; Preemergence, Rate 250 g/ha) | Plant response rating, Cocklebur [5, 22] | Giant foxtail plant response rating [6, 23] | Plant response rating, Giant foxtail [6, 17] | Giant foxtail plant response rating [6, 18] | Plant response rating, Giant foxtail [6, 19] | Giant foxtail plant response rating [6, 20] | Giant foxtail plant response rating [6, 21] | Plant response rating, Giant foxtail [6, 22] | Blackgrass plant response rating [7, 23] | Plant response rating, Blackgrass [7, 17] | Blackgrass plant response rating [7, 18] | Plant response rating, Blackgrass [7, 19] | Blackgrass plant response rating [7, 20] | Blackgrass plant response rating [7, 21] | Blackgrass plant response rating (0 to 10 scale) ([7]; Preemergence, Rate 250 g/ha) | Blackgrass plant response rating [7, 22] | Plant response rating, Rice (0 to 10 scale, 0 is no effect, 10 is complete control) [8, 24] | Rice plant response rating (0 to 10 scale, 0 is no effect, 10 is complete control) [8, 25] | Rice plant response rating [8, 26] | Rice plant response rating [8, 27] | Plant response rating, Sugarbeets [9, 17] | Sugarbeets plant response rating [9, 18] | Plant response rating, Sugarbeets [9, 19] | Sugarbeets plant response rating [9, 20] | Sugarbeets plant response rating [9, 21] | Plant response rating, Sugarbeets [9, 22] | Rape plant response rating [10, 23] | Plant response rating, Rape [10, 17] | Rape plant response rating [10, 18] | Plant response rating, Rape [10, 19] | Rape plant response rating [10, 20] | Rape plant response rating [10, 21] | Plant response rating, Rape [10, 22] | Plant response rating, Wheat [11, 17] | Wheat plant response rating [11, 18] | Plant response rating, Wheat [11, 19] | Wheat plant response rating [11, 20] | Wheat plant response rating [11, 21] | Plant response rating, Wheat [11, 22] | Plant response rating, Ducksalad (0 to 10 scale, 0 is no effect, 10 is complete control) [12, 24] | Ducksalad plant response rating (0 to 10 scale, 0 is no effect, 10 is complete control) [12, 25] | Ducksalad plant response rating [12, 26] | Ducksalad plant response rating [12, 27] | Plant response rating, Barnyardgrass (0 to 10 scale, 0 is no effect, 10 is complete control) [13, 24] | Barnyardgrass plant response rating (0 to 10 scale, 0 is no effect, 10 is complete control) [13, 25] | Barnyardgrass plant response rating [13, 26] | Barnyardgrass plant response rating [13, 27] | Plant response rating, S. Flatsedge (0 to 10 scale, 0 is no effect, 10 is complete control) [14, 24] | S. Flatsedge plant response rating (0 to 10 scale, 0 is no effect, 10 is complete control) [14, 25] | S. Flatsedge plant response rating [14, 26] | S. Flatsedge plant response rating [14, 27] | B. signalgrass plant response rating [15, 23] | Plant response rating, B. signalgrass [15, 17] | B. signalgrass plant response rating [15, 18] | Plant response rating, B. signalgrass [15, 19] | B. signalgrass plant response rating [15, 20] | B. signalgrass plant response rating [15, 21] | B. signalgrass plant response rating (0 to 10 scale, 0 is no effect, 10 is complete control) ([15]; Preemergence, Rate 250 g/ha) | B. signalgrass plant response rating [15, 22] | Nutsedge plant response rating [16, 23] | Plant response rating, Nutsedge [16, 17] | Nutsedge plant response rating [16, 18] | Plant response rating, Nutsedge [16, 19] | Nutsedge plant response rating [16, 20] | Nutsedge plant response rating [16, 21] | Plant response rating, Nutsedge [16, 22]

From patent publication US6737383B1, “Herbicidal oxadiazolidines” (priority 1999, dated 2004)
